Experiments:
[1] = cited from earlier work
[2] = Solubility of oxaliplatin in aqueous carbohydrate solutions (saturated solution supernatant, HPLC; pH of saturated solution); conditions: for Oxaliplatin concentration of the saturated solution: pH not adjusted; for pH of the saturated solution: oxaliplatin-saturated

For O=C1[O][Pt-2]2([NH2+]C3CCCC[C@H]3[NH2+]2)[O]C1=O (stereo partly drawn) [Oxaliplatin, cis-oxalato-(trans-1,2-cyclohexanediamine)-platinum(II)], the Stability in water ([1]; at least at concentrations below 1 mg/ml) is listed as “not very stable”, the Solubility in ethanol ([1]; ethanol) is listed as “practically insoluble” and the Solubility in methanol ([1]; methanol) is listed as “scarcely soluble”. The Solubility in water ([1]; water) was “soluble”, the “Oxaliplatin concentration of the saturated solution” value ([2]; 0% Glucose) was 7.66 mg/mL and the “Oxaliplatin concentration of the saturated solution” value ([2]; 5% Glucose) was 8.14 mg/mL. The “Oxaliplatin concentration of the saturated solution” value ([2]; 10% Glucose) was 10.74 mg/mL, the “Oxaliplatin concentration of the saturated solution” value ([2]; 10% Lactose) was 10.12 mg/mL and the “Oxaliplatin concentration of the saturated solution” value ([2]; 10% Trehalose) was 10.32 mg/mL. The “Oxaliplatin concentration of the saturated solution” value ([2]; 20% Glucose) was 11.85 mg/mL, the “Oxaliplatin concentration of the saturated solution” value ([2]; 25% Dextran 10) was 10.90 mg/mL and the “Oxaliplatin concentration of the saturated solution” value ([2]; 25% Dextran 40) was 10.85 mg/mL. For the same molecule, the “Oxaliplatin concentration of the saturated solution” value ([2]; 25% Dextran 70) was 10.90 mg/mL, the “Oxaliplatin concentration of the saturated solution” value ([2]; 25% Galactose) was 11.53 mg/mL and the “Oxaliplatin concentration of the saturated solution” value ([2]; 30% Glucose) was 12.66 mg/mL. For the same molecule, the “Oxaliplatin concentration of the saturated solution” value ([2]; 40% Glucose) was 13.54 mg/mL, the “Oxaliplatin concentration of the saturated solution” value ([2]; 50% Fructose) was 12.56 mg/mL and the “Oxaliplatin concentration of the saturated solution” value ([2]; 50% Maltose) was 17.83 mg/mL. For the same molecule, the solubility ([2]; aqueous solution, 25 °C, water) was 7000 to 8000 µg/mL, the solubility ([2]; aqueous solutions with solubilizers, aqueous with cosolvent or surfactant or cyclodextrin) was over 7000 µg/mL and the “Oxaliplatin concentration obtained with adjuvants” value ([2]; glucose, maltose, fructose, galactose, dextran 10, 40, 70, polyethylene glycol 200, 300, 400 and 600 as adjuvants) was “more than 7 mg/ml solvent”. For the same molecule, the “pH of the saturated solution” value ([2]; 0% Glucose) was “pH 6.1”, the “pH of the saturated solution” value ([2]; 5% Glucose) was “pH 5.9” and the “pH of the saturated solution” value ([2]; 10% Glucose) was “pH 5.8”. The “pH of the saturated solution” value ([2]; 10% Lactose) was “pH 4.3”, the “pH of the saturated solution” value ([2]; 10% Trehalose) was “pH 4.6” and the “pH of the saturated solution” value ([2]; 20% Glucose) was “pH 5.7”. For the same molecule, the “pH of the saturated solution” value ([2]; 25% Dextran 10) was “pH 4.8”, the “pH of the saturated solution” value ([2]; 25% Dextran 40) was “pH 4.2” and the “pH of the saturated solution” value ([2]; 25% Dextran 70) was “pH 4.1”. The “pH of the saturated solution” value ([2]; 25% Galactose) was “pH 6.3”, the “pH of the saturated solution” value ([2]; 30% Glucose) was “pH 5.6” and the “pH of the saturated solution” value ([2]; 40% Glucose) was “pH 5.6”. The “pH of the saturated solution” value ([2]; 50% Fructose) was “pH 4.7”, the “pH of the saturated solution” value ([2]; 50% Maltose) was “pH 3.7” and the solubility ([2]; water) was about 7500 µg/mL. The “Maximum concentration of oxaliplatin in water” value ([2]; with additional dissolved tonic, pH-adjusting, buffering or preserving adjuvants) was 7 mg/mL.
